Experiment [1] deals with WSU-DLCL2 cells. The experiment in a line: Internalization assay by flow cytometry. The following applies: 100 ug/ml. The format is cell-based. As to the method: FIG. 6. A-B Results of internalization assay performed by incubating WSU-DLCL2 cells with the Epr-AF488 antibody for 3 hours at 37° C. (A) or 4° C. (B). Single-cell fluorescence was measured by flow cytometry.
Internalization assay. To test the internalization of the conjugated Epratuzumab antibody, 2×10^5 WSU-DLCL2 cells were incubated at 37° C. for 3 hours with 100 ug/ml of Epr-AF488 in PBS. As negative control, the same number of cells was incubated with 100 ug/ml of Epratuzumab previously incubated with AF488 dye in absence of DBCO-maleimide linker. Each experimental condition was tested in duplicates. Cells were then washed 3 times with PBS and 1 ul of anti-AF488 quencher antibody (ThermoFisher Scientific, A-11094) was added to half of the samples. Samples' fluorescence was measured by flow cytometry using Millipore Guava EasyCyte HT instrument (MilliporeSigma).
(Flow cytometry measures light scatter and fluorescence of single cells or particles in a stream.)

Experiment [2] addresses T1, CTSS wild-type (Homo sapiens, UniProt P25774).
T1 construct: made in house; host or cells: HEK293
The experiment in a line: FRET assay to test CTSS activity (wild-type). The format is biochemical. An excerpt: (§1) Cathepsins protein expression and purification. For CTSS purification, the human CTSS sequence depleted of the lysosomal localization signal (amino acids 17 to 331) was amplified from pLVX plasmids expressing WT or Y132D CTSS using the following primers: […]
The PCR products were digested using Agel and Kpn1 restriction enzymes (NEB, cat #R3552S and #R3142S), then cloned in pHLsec plasmids carrying a secretion signal at the N-terminal of the MCS and a His-tag sequence at the C-terminal of the MCS. pHLsec-CTSS plasmids were transfected into HEK293 cells with PEI (polyethyleneimine) in presence of VPA (valproic acid). Proteins were purified from the supernatant using a 5 ml His-Trap FF column on an ÄKTA pure system (GE healthcare). Bound proteins were eluted using a 300 mM imidazole solution. Concentrated proteins were further purified by size exclusion chromatography on a HiLoad® 16/600 Superdex® 75 pg column (GE Healthcare) using PBS as mobile phase. Purified proteins were quantified by Nanodrop, diluted in a buffer containing 12.5 mM MES, 75 mM NaCl and 50% glycerol at ph 6.5 and stored at −20° C. […]
FRET (Fluorescence Resonance Energy Transfer) assay to test CTSS activity. […] The peptide was added to the activated CTSS (50 ul/well) and fluorescent emission (MCA) was measured with SpectraMax iD3 (Molecular Devices) in kinetic mode for three hours (excitation: 330 nm, emission: 390 nm). […]

Experiment [3] addresses T2, CTSS Y132D (Homo sapiens, UniProt P25774, Y132D).
T2 construct: made in house; host or cells: HEK293
Nature of the experiment: FRET assay with mutated CTSS Y132D. The format is biochemical.
From the text: as §1
The PCR products were digested using Agel and Kpn1 restriction enzymes (NEB, cat #R3552S and #R3142S), then cloned in pHLsec plasmids carrying a secretion signal at the N-terminal of the MCS and a His-tag sequence at the C-terminal of the MCS. pHLsec-CTSS plasmids were transfected into HEK293 cells with PEI (polyethyleneimine) in presence of VPA (valproic acid). Proteins were purified from the supernatant using a 5 ml His-Trap FF column on an ÄKTA pure system (GE healthcare). Bound proteins were eluted using a 300 mM imidazole solution. Concentrated proteins were further purified by size exclusion chromatography on a HiLoad® 16/600 Superdex® 75 pg column (GE Healthcare) using PBS as mobile phase. Purified proteins were quantified by Nanodrop, diluted in a buffer containing 12.5 mM MES, 75 mM NaCl and 50% glycerol at ph 6.5 and stored at −20° C. Purified CTSB and CTSH were purchased from RndSystems.
FRET (Fluorescence Resonance Energy Transfer) assay to test CTSS activity. For FRET experiments, CTSS-His was diluted to 10 μg/mL in assay buffer (50 mM NaOAc, 5 mM DTT, 250 mM NaCl), at pH 4.5 and incubated at 37° C. for 90 minutes to allow auto-activation. The protein was then diluted to 0.5 ng/ul in assay buffer and plated in 96-well plates (50 ul/well). […] The peptide was added to the activated CTSS (50 ul/well) and fluorescent emission (MCA) was measured with SpectraMax iD3 (Molecular Devices) in kinetic mode for three hours (excitation: 330 nm, emission: 390 nm).
It was recently reported that 5.7% of lymphoma patients harbour a specific gain of function mutation changing the tyrosine 132 in aspartate (Y132D) or asparagine (Y132N). […] This was measured through a FRET assay in which the inhibitor was incubated with CTSS Y132D. […]

Experiment [4] concerns the target T3, CTSB in MCF-7 cells (Homo sapiens, UniProt P07858).
T3 construct: endogenous in cells; host or cells: MCF-7
The experiment in a line: Quenched activity-based probe (qABP) assay in MCF-7 cells. It counts as cell-based. Particulars: 16 hours, 500 ug/ml APeC, compared to PBS or antibody mixed to C10 without linker. The protocol:
FIG. 8. Output of quenched activity-based probe (qABP) assay. The presence of a dark band corresponds to the detection of a strong activity of CTSB. Absence of a band means complete CTSB inhibition. APeC=antibody-peptide conjugate. Ab=antibody.
(§2) CD74 accumulation assay for efficacy assessment. To test the efficacy of our APeCs, 2×10^5 WSU-DLCL2 or Raji cells were incubated for two days with 300 or 500 ug/ml of APeC, in RPMI 1640 medium (ThermoFisher Scientific) supplemented with 10% FBS and 1% Penicillin-Streptomycin (ThermoFisher Scientific, cat. no. 15140122). After the first 24 h treatment, the cells were washed and resuspended in fresh APeC at the same treatment concentration. As negative controls, the same number of cells was either treated with PBS or with 300 ug/ml of the corresponding antibody previously incubated with C10 inhibitor in absence of DBCO-maleimide linker. Each treatment condition was tested in duplicates. […] Cells were then stained with anti-human CD74 antibody (BioLegend, cat. no. 357604) and fluorescence was measured by flow cytometry using BD LSRFortessa instrument (BD Biosciences). […] The gel was analysed by scanning in-gel fluorescence on a Typhoon Trio flat-bed laser scanner (GE Healthcare), and protein loading was confirmed by staining with Coomassie® Brilliant Blue R-250 (Schmidt GmbH). […]

The target of experiment [5] is T4, cathepsin H (CTSH) (Homo sapiens, UniProt P09668).
T4 construct: purchased RndSystems
T4 sequence (P09668 116-335 limits assumed, other chains not shown): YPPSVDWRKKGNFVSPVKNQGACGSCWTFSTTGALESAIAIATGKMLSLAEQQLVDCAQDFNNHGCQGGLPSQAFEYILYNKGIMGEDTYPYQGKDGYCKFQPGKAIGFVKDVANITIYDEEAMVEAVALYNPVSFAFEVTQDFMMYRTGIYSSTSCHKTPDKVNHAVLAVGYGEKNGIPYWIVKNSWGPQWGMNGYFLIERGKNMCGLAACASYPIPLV
The experiment in a line: Specificity assay: FRET assay for CTSH activity. The format is biochemical. Particulars: at 20 uM or 50 uM, 180 minutes. The protocol: (§3) Specificity assay. […] First, we used specific conditions to activate the enzymes. CTSB was diluted in a specific activation buffer (MES 25 mM, DTT 5 mM, pH 5) at 10 ug/ml, incubated at 37° C. for 2 h and then diluted to 1 ug/ml in assay buffer (MES 25 mM, pH 5) for the FRET assay. CTSH was diluted in a different activation buffer (MES 50 mM, CaCl2) 10 mM, NaCl 150 mM, pH 6.5) at 200 ug/ml. In addition, as co-stimulatory activator we used thermolysin diluted at 100 ug/ml in activation buffer and then mixed with an equal volume of the diluted CTSH. The solution was incubated for 1 h at room temperature and then we added 2 mM Phosphoramidon diluted in assay buffer (MES 50 mM, pH 6.5) and we incubated the mix for 10 minutes at room temperature. Lastly, we added an equal volume of assay buffer containing 20 mM DTT and incubated the solution for 5 minutes at room temperature. For the FRET assay, we diluted both CTSH, and CTSB at 1 ug/ml in their specific assay buffer and incubated them with a specific substrate. We used as substrate KPPKPVSD in CTSB FRET assays and KLRMKLPKP in CTSH FRET assays and we tested two doses of our P3 inhibitor (20 uM and 50 uM). Fluorescence emission was measured with SpectraMax iD3 (Molecular Devices) in kinetic mode over three hours (excitation: 330 nm, emission: 390 nm).

Experiment [6] has as its target T5, cathepsin B (CTSB) (Homo sapiens, UniProt P07858).
T5 construct: purchased RndSystems
Nature of the experiment: Specificity assay: FRET assay for CTSB activity. The format is biochemical. As to the method: as §3

Experiment [7] deals with T6, CTSS in primary human B-cells (Homo sapiens, UniProt P25774).
T6 construct: endogenous in cells; host or cells: primary human B-cells (2 donors)
T6 sequence (P25774 115-331): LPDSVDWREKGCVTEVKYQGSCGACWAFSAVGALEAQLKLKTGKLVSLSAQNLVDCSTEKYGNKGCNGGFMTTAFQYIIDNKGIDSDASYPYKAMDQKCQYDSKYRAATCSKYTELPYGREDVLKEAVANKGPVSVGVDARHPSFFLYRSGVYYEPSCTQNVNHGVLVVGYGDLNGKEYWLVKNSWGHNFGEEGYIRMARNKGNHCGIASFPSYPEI
Nature of the experiment: qABP assay on primary human B-cells. It counts as cell-based. The following applies: 2 different donors. An excerpt: FIG. 11. Output of quenched activity-based probe (qABP) assay on primary human B-cells. The presence of a dark band at a precise molecular weight indicates to the detection of a strong activity of the corresponding cathepsin. Absence of a band means complete cathepsin inhibition. APeC=antibody-peptide conjugate. ab=antibody.

The test system of experiment [8] is CTSS in WSU-DLCL2 cells. The experiment in a line: CD74 accumulation assay in WSU-DLCL2 cells. It counts as cell-based, human. The following applies: 48 hours, compared to PBS or antibody mixed to C10 in absence of linker. As to the method:
(§4) FIG. 7. A-B CD74 accumulation after 48 hours-long anti-CD22 APeC treatment in WSU cells (A) and Raji cells (B). C-D CD74 accumulation after 48 hours-long anti-CD79 APeC treatment in WSU cells (C) and Raji cells (D). Single-cell fluorescence was measured by flow cytometry. CTSS inhibitor Petesicatib was used as positive control.
as §2, with “linker.” for “linker. Each treatment condition was tested in duplicates.”

Experiment [9] concerns CTSS in Raji cells. Nature of the experiment: CD74 accumulation assay in Raji cells. The format is cell-based, human. The following applies: 48 hours, compared to PBS or antibody mixed to C10 in absence of linker. The protocol: as §4
as §2, with “linker.” for “linker. Each treatment condition was tested in duplicates.”

Where [10] appears, read: at 20 uM and at 50 uM, FRET, 180 minutes.

The record followed here is patent US20240352070A1, “NOVEL CATHEPSIN INHIBITORS” (Ecole Polytechnique Federale de Lausanne (EPFL), priority 2021, published 2024).

Numbered stars: 1 amine (or outer) side, 2 acyl side, 3 side chain; on linkers, the order of the positions; unused ones are H or OH. Square brackets hold non-standard residues; d marks the D form. Peptide text beside a SMILES is read from it. Trp(3a,7a-dihydro) = N[C@@H](CC1=CNC2C=CC=CC12)C(=O)O; Butenoyl(2E,4-amino) = O=C(/C=C/CN[*:1])[*:2]; Dap(N3) = [N-]=[N+]=NC[C@H](N)C(=O)O; Pra = C#CC[C@H](N)C(=O)O Some results are limits rather than exact numbers.

T2 sequence (P25774 115-331 Y132D): as the sequence (P25774 115-331) above, with Y18D counted along it
T1 sequence (P25774 115-331): as the sequence (P25774 115-331) above

Regarding “Epr-AF488: Epratuzumab antibody conjugated with AlexaFluor-488 azide-dye instead of C10”, the “internalization by lymphoma cells (inaccessible to quencher antibody)” value in experiment [1] (3 hours at 37° C.) is “internalized”. The “binding to lymphoma cells” value in experiment [1] (3 hours, flow cytometry) is reported as “still able to bind lymphoma cells”.

For orientation: IC50 means the concentration that inhibits the measured activity by half. For orientation: inhibition means the change of the read-out against control, counted positive when it falls. On to `CSCC[C@H](NC(=O)[C@H](CCCNC(=N)N)NC(=O)[C@H](Cc1c[nH]cn1)NC(=O)[C@H](CCCCN)NC(=O)[C@H](CN=[N+]=[N-])NC(C)=O)C(=O)NC/C=C/C(=O)N[C@H](C(=O)N[C@@H](CCSC)C(=O)N[C@@H](Cc1c[nH]c2ccccc12)C(N)=O)C(C)C` [C10, KHRM(Y)VMW] (Ac-[Dap(N3)]KHRM[Butenoyl(2E,4-amino)]VMW-NH2), for which the IC50 in experiment [2] (FRET assay, dose-response, 50 minutes of incubation, wild-type CTSS) turned out to be 49.3 nM. Also, the inhibition at 0.5 µM in experiment [3] (at 500 nM, 50 minutes of incubation, read-out: reduction of CTSS Y132D activity (inhibition efficiency)) is above 90%. Besides, the “reduction of CTSS Y132D activity” value in [3] (tested at 50 nM, 50 minutes of incubation) is recorded as “more than 50%”.

For the compound `CC(C)C[C@H](NC(=O)[C@H]1O[C@@H]1C(=O)O)C(=O)NCCCCN=C(N)N` [E64], the “residual CTSB activity” value in experiment [4] is “inhibited CTSB activity as expected”.

With `C#CC[C@H](NC(C)=O)C(=O)N[C@@H](CCCCN)C(=O)N[C@@H](CC(C)C)C(=O)N[C@@H](CCCNC(=N)N)C(=O)N[C@@H](CCSC)C(=O)NC/C=C/C(=O)N1CCC[C@H]1C(=O)N[C@@H](CCCCN)C(=O)N[C@@H](CC(=O)O)C(N)=O` [P3, KLRM(Y)PKD] (Ac-[Pra]KLRM[Butenoyl(2E,4-amino)]PKD-NH2), the “inhibition of CTSH” value in experiment [5] was “not significantly inhibited”. For the same compound, in experiment [2] (setting [10]), the “inhibition of wild-type CTSS” value is “able to inhibit”. The “inhibitory activity on CTSB” value in [6] is given as “some inhibitory activity”. In addition, the “inhibition of mutant form of CTSS (Y132D)” value in [3] (setting [10]) was “able to inhibit”.

Compound `CSCC[C@H](NC(=O)[C@H](CC1=CNC2C=CC=CC12)NC(=O)/C=C/CNC(=O)[C@H](Cc1ccc(O)cc1)NC(=O)[C@H](CCCNC(=N)N)NC(=O)[C@H](CCCNC(=N)N)NC(=O)[C@H](CCCCN)NC(=O)[C@H](CN=[N+]=[N-])NC(C)=O)C(=O)N[C@@H](CC1=CNC2C=CC=CC12)C(N)=O` (some centres unmarked) [D5, KRRY(Y)WMW] (Ac-[Dap(N3)]KRRY[Butenoyl(2E,4-amino)][Trp(3a,7a-dihydro)]M[Trp(3a,7a-dihydro)]-NH2) displayed an IC50 in experiment [6] (dose-response, 50 minutes of incubation) of 61.9 nM.

Turning to `Cn1cc(-c2ccc(S(=O)(=O)[C@@H]3C[C@@H](C(=O)NC4(C#N)CC4)N(C(=O)C4(C(F)(F)F)CC4)C3)c(C(F)(F)F)c2)cn1` [Petesicatib], the “CTSS inhibition (qABP band)” value in experiment [7] is recorded as “comparable”. For the same compound, the CD74 accumulation result in [8] and in [9] was “lower than what we obtained with lower doses of our APeCs” in each case.
